# Measurements from patent publication US20260152533A1, “COMBINATION INHIBITORS FOR TREATING FIBROSIS” (Memorial Sloan-Kettering Cancer Center, priority 2021, published 2026).
# How the values were obtained:
# Format in all cases: cell-based, mouse
# NIH-3T3 cells = experiment: Collagen abundance in ECM derived from confluent NIH-3T3 cells; settings: 100% and 50% Gln, TGFβ
# Procedure: (§1) Culture plates were coated with 0.1% gelatin (Sigma) and treated with 1% glutaraldehyde (Sigma) and 1 M ethanolamine (Sigma). Confluent NIH-3T3 cells, MFBs or PSCs were grown for 6 days on coated plates in the presence of […] sodium ascorbate (Sigma) and treated as indicated, and the medium was replaced every other day. Plates were decellularized with 20 mM ammonium hydroxide/0.5% Triton-X 100 for 5 min on a rotating platform. Three times the volume of PBS was added, and ECM was equilibrated overnight at 4° C., followed by four additional PBS washes. For western blot, preheated sample buffer supplemented with 1 mM dithiothreitol (DTT) was added, ECM was scraped off and boiled, and proteins were separated by SDS-PAGE followed by immunoblotting. To measure collagen abundance, fibroblast-derived ECM was stained with the Picro Sirius Red Stain Kit (Abcam) according to the manufacturer's instructions. The stain was extracted with 0.1 M sodium hydroxide (NaOH) and optical density was measured at 550 nm using a microplate reader. Differences in cell number were controlled for by growing cells on separate plates under the same experimental conditions.
# [1] = test system: mammary fibroblasts (MFBs); experiment: Growth experiments, MFBs; settings: 20% Gln, TGFβ
# Source text: (§2) NIH-3T3 cells were obtained from ATCC (CRL-1658); 293 T cells were obtained from ATCC (CRL-3216). PSCs were isolated from C57BL/6 mice by differential centrifugation as previously described^49 and their mesenchymal origin was validated by analyzing the expression of various mesenchymal and epithelial markers. MFBs were isolated from FVB/N mice by differential centrifugation as previously described^50. DB7 mouse breast cancer cells were obtained from Alexander Borowsky (University of California Davis Comprehensive Cancer Center, Sacramento, CA, USA) through an MTA to Ohio State University (OSU). KPC (Kras^LSL-G12D; Trp53^LSL-R172H; Pdx1-Cre) mouse PDAC cells were a gift from Scott Lowe (Memorial Sloan Kettering Cancer Center. (MSKCC)). […]
# A total of 0.2×10^5 cells/well were plated in 24-well culture plates and media was changed and treatments started 5-6 hours later. Cell numbers at the start of treatment (day 0 “d 0”) and 1, 2 and 3 days later were counted using the Multisizer 4e (Beckman) and normalized to the cell number at d 0. In co-culture assays, a fraction of the cell population was analyzed by flow cytometry for GFP expression, and the rest counted with the Multisizer 4e. The number of KPC-GFP cells was determined by multiplying the fraction of GFP+ cells with the total number of cells.
# [2] = test system: mammary fibroblasts (MFBs); experiment: Collagen abundance in ECM derived from confluent MFBs; settings: Gln 20% or lower, TGFβ (FIG. 8F)
# Procedure: as §1
# [3] = test system: mammary fibroblasts (MFBs); experiment: Western blot of MFBs; settings: TGFβ
# Source text: as §2
# Lysates were generated by incubating cells or ground tumors in RIPA buffer (Millipore); […] of cleared lysate were analyzed by SDS-polyacrylamide gel electrophoresis (SDS-PAGE) as previously described^11. […] Quantification of band intensities of collagen I relative to […] or vinculin in tumor allograft experiments was performed with Image Lab software v6.0 (Bio-Rad).
substance,measurement,setting,value
TGFβ: transforming growth-factor beta; TGFβ-1 purchased from Peprotech,collagen I levels in the ECM secreted by confluent fibroblasts,NIH-3T3 cells,upregulated
same,cell proliferation,[1],unable to proliferate
same,collagen accumulation in the ECM,[2],could no longer stimulate
same,collagen I production,"[3]; 20% Gln, 48 hours",unable to proliferate and produce collagen I
same,GCN2 phosphorylation,"[3]; low Gln (20%), 48 hours (FIG. 8K)",showed GCN2 phosphorylation
